Test results published in PubChem BioAssay (NCI).
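Tested at 5 concentrations; 48 h exposure; 96-well plates; endpoints linearly interpolated, else capped at highest concentration. At the TGI there is no net growth.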

How the values were obtained:
Experiment in all cases: NCI anticancer screen, dose series, 48 h
[1] = test system: 786-0 renal
[2] = test system: A498 renal
[3] = test system: A549 NSCLC
[4] = test system: ACHN renal
[5] = test system: BT-549 breast
[6] = test system: CAKI-1 renal
[7] = test system: CCRF-CEM leukemia
[8] = test system: COLO 205 colon
[9] = test system: DU-145 prostate
[10] = test system: EKVX NSCLC
[11] = test system: HCC-2998 colon
[12] = test system: HCT-116 colon
[13] = test system: HCT-15 colon
[14] = test system: HL-60(TB) leukemia
[15] = test system: HOP-62 NSCLC
[16] = test system: HOP-92 NSCLC
[17] = test system: HS 578T breast
[18] = test system: HT29 colon
[19] = test system: IGROV1 ovarian
[20] = test system: K-562 leukemia
[21] = test system: KM12 colon
[22] = test system: LOX IMVI melanoma
[23] = test system: M14 melanoma
[24] = test system: MALME-3M melanoma
[25] = test system: MCF7 breast
[26] = test system: MDA-MB-231 breast
[27] = test system: MDA-MB-435
[28] = test system: MDA-N
[29] = test system: MOLT-4 leukemia
[30] = test system: NCI-H226 lung
[31] = test system: NCI-H23 lung
[32] = test system: NCI-H460 lung
[33] = test system: NCI/ADR-RES ovarian
[34] = test system: OVCAR-3 ovarian
[35] = test system: OVCAR-4 ovarian
[36] = test system: OVCAR-5 ovarian
[37] = test system: OVCAR-8 ovarian
[38] = test system: PC-3 prostate
[39] = test system: RXF 393 renal
[40] = test system: SF-268 CNS
[41] = test system: SF-295 CNS
[42] = test system: SF-539 CNS
[43] = test system: SK-MEL-2 melanoma
[44] = test system: SK-MEL-28 melanoma
[45] = test system: SK-MEL-5 melanoma
[46] = test system: SK-OV-3 ovarian
[47] = test system: SN12C renal
[48] = test system: SNB-19 CNS
[49] = test system: SNB-75 CNS
[50] = test system: SW-620 colon
[51] = test system: T-47D breast
[52] = test system: TK-10 renal
[53] = test system: U251 CNS
[54] = test system: UACC-257 melanoma
[55] = test system: UACC-62 melanoma
[56] = test system: UO-31 renal
[57] = test system: NCI-H522 lung
[58] = test system: RPMI-8226 leukemia
[59] = test system: SR leukemia

Structure (SMILES): CCOP(=O)(OCC)/C(=C/c1ccccc1)CC(C)=O
- TGI [1]: > 100 µM
- TGI [2]: > 100 µM
- TGI [3]: > 100 µM
- TGI [4]: > 100 µM
- TGI [5]: > 100 µM
- TGI [6]: > 100 µM
- TGI [7]: > 100 µM
- TGI [8]: > 100 µM
- TGI [9]: > 100 µM
- TGI [10]: > 100 µM
- TGI [11]: > 100 µM
- TGI [12]: > 100 µM
- TGI [13]: > 100 µM
- TGI [14]: 68.7 µM
- TGI [15]: > 100 µM
- TGI [16]: > 100 µM
- TGI [17]: > 100 µM
- TGI [18]: > 100 µM
- TGI [19]: > 100 µM
- TGI [20]: > 100 µM
- TGI [21]: > 100 µM
- TGI [22]: > 100 µM
- TGI [23]: > 100 µM
- TGI [24]: > 100 µM
- TGI [25]: > 100 µM
- TGI [26]: > 100 µM
- TGI [27]: > 100 µM
- TGI [28]: > 100 µM
- TGI [29]: > 100 µM
- TGI [30]: > 100 µM
- TGI [31]: > 100 µM
- TGI [32]: > 100 µM
- TGI [33]: > 100 µM
- TGI [34]: > 100 µM
- TGI [35]: > 100 µM
- TGI [36]: > 100 µM
- TGI [37]: > 100 µM
- TGI [38]: > 100 µM
- TGI [39]: > 100 µM
- TGI [40]: > 100 µM
- TGI [41]: > 100 µM
- TGI [42]: > 100 µM
- TGI [43]: > 100 µM
- TGI [44]: > 100 µM
- TGI [45]: > 100 µM
- TGI [46]: > 100 µM
- TGI [47]: > 100 µM
- TGI [48]: > 100 µM
- TGI [49]: > 100 µM
- TGI [50]: > 100 µM
- TGI [51]: > 100 µM
- TGI [52]: > 100 µM
- TGI [53]: > 100 µM
- TGI [54]: > 100 µM
- TGI [55]: > 100 µM
- TGI [56]: > 100 µM

Structure (SMILES): CC1=C(C(=O)OCCc2ccc([N+](=O)[O-])cc2)C(c2ccccc2C(F)(F)F)C(C(=O)OC(C)C)=C(C)N1 (stereo unspecified)
- TGI [1]: > 100 µM
- TGI [3]: > 100 µM
- TGI [4]: > 100 µM
- TGI [5]: > 100 µM
- TGI [6]: > 100 µM
- TGI [7]: > 100 µM
- TGI [8]: 16.3 µM
- TGI [9]: > 100 µM
- TGI [10]: 6.51 µM
- TGI [11]: > 100 µM
- TGI [12]: > 100 µM
- TGI [13]: > 100 µM
- TGI [15]: > 100 µM
- TGI [17]: 61.6 µM
- TGI [18]: > 100 µM
- TGI [19]: > 100 µM
- TGI [20]: > 100 µM
- TGI [21]: 31 µM
- TGI [22]: > 100 µM
- TGI [23]: 16.2 µM
- TGI [24]: 28.5 µM
- TGI [25]: > 100 µM
- TGI [26]: > 100 µM
- TGI [27]: > 100 µM
- TGI [28]: > 100 µM
- TGI [29]: 7.95 µM
- TGI [30]: 21.5 µM
- TGI [31]: > 100 µM
- TGI [32]: > 100 µM
- TGI [57]: 7.5 µM
- TGI [33]: > 100 µM
- TGI [34]: > 100 µM
- TGI [35]: > 100 µM
- TGI [36]: > 100 µM
- TGI [37]: > 100 µM
- TGI [38]: > 100 µM
- TGI [58]: > 100 µM
- TGI [39]: 7.34 µM
- TGI [40]: > 100 µM
- TGI [41]: > 100 µM
- TGI [42]: > 100 µM
- TGI [43]: 7.16 µM
- TGI [44]: > 100 µM
- TGI [45]: 3.09 µM
- TGI [46]: 30.6 µM
- TGI [47]: 26.7 µM
- TGI [48]: > 100 µM
- TGI [49]: > 100 µM
- TGI [59]: > 100 µM
- TGI [50]: > 100 µM
- TGI [51]: > 100 µM
- TGI [52]: > 100 µM
- TGI [53]: > 100 µM
- TGI [54]: > 100 µM
- TGI [55]: 36.5 µM
- TGI [56]: > 100 µM

Structure (SMILES): Nc1nc(N)nc(-c2cnc3ccccc3c2)n1
- TGI [1]: > 100 µM
- TGI [2]: > 100 µM
- TGI [3]: > 100 µM
- TGI [4]: > 100 µM
- TGI [5]: > 100 µM
- TGI [6]: > 100 µM
- TGI [7]: 65.9 µM
- TGI [8]: > 100 µM
- TGI [9]: > 100 µM
- TGI [10]: > 100 µM
- TGI [11]: > 100 µM
- TGI [12]: > 100 µM
- TGI [13]: > 100 µM
- TGI [15]: > 100 µM
- TGI [16]: > 100 µM
- TGI [17]: > 100 µM
- TGI [19]: > 100 µM
- TGI [20]: > 100 µM
- TGI [21]: > 100 µM
- TGI [22]: > 100 µM
- TGI [23]: > 100 µM
- TGI [24]: > 100 µM
- TGI [25]: > 100 µM
- TGI [26]: > 100 µM
- TGI [27]: > 100 µM
- TGI [28]: > 100 µM
- TGI [29]: > 100 µM
- TGI [30]: > 100 µM
- TGI [31]: > 100 µM
- TGI [32]: > 100 µM
- TGI [57]: > 100 µM
- TGI [33]: > 100 µM
- TGI [34]: > 100 µM
- TGI [36]: > 100 µM
- TGI [37]: > 100 µM
- TGI [38]: > 100 µM
- TGI [39]: > 100 µM
- TGI [40]: > 100 µM
- TGI [41]: > 100 µM
- TGI [42]: > 100 µM
- TGI [43]: > 100 µM
- TGI [44]: > 100 µM
- TGI [46]: > 100 µM
- TGI [47]: > 100 µM
- TGI [48]: > 100 µM
- TGI [49]: > 100 µM
- TGI [59]: > 100 µM
- TGI [50]: > 100 µM
- TGI [51]: > 100 µM
- TGI [52]: > 100 µM
- TGI [53]: > 100 µM
- TGI [54]: > 100 µM
- TGI [55]: > 100 µM
- TGI [56]: > 100 µM

Structure (SMILES): COc1cc(/C=C2/C[C@H]3[C@@H]4CCC5=CC(=O)CC[C@]5(C)[C@H]4CC[C@]3(C)NC2=O)cc(OC)c1OC
- TGI [1]: > 100 µM
- TGI [2]: 41.6 µM
- TGI [3]: > 100 µM
- TGI [4]: > 100 µM
- TGI [5]: 53.7 µM
- TGI [6]: > 100 µM
- TGI [7]: 64.4 µM
- TGI [8]: 44.4 µM
- TGI [9]: > 100 µM
- TGI [10]: > 100 µM
- TGI [11]: > 100 µM
- TGI [12]: > 100 µM
- TGI [13]: > 100 µM
- TGI [14]: 45.3 µM
- TGI [15]: > 100 µM
- TGI [16]: 39.6 µM
- TGI [17]: 73.9 µM
- TGI [18]: > 100 µM
- TGI [19]: 94.7 µM
- TGI [21]: > 100 µM
- TGI [23]: > 100 µM
- TGI [24]: 72.2 µM
- TGI [25]: 88.9 µM
- TGI [26]: 83.2 µM
- TGI [27]: > 100 µM
- TGI [28]: > 100 µM
- TGI [29]: > 100 µM
- TGI [30]: > 100 µM
- TGI [31]: 57.3 µM
- TGI [32]: > 100 µM
- TGI [57]: 34 µM
- TGI [33]: > 100 µM
- TGI [34]: > 100 µM
- TGI [35]: > 100 µM
- TGI [36]: 57.7 µM
- TGI [37]: 70.7 µM
- TGI [38]: > 100 µM
- TGI [58]: > 100 µM
- TGI [39]: 46.7 µM
- TGI [40]: > 100 µM
- TGI [41]: 77.7 µM
- TGI [43]: > 100 µM
- TGI [44]: > 100 µM
- TGI [45]: 52.4 µM
- TGI [46]: > 100 µM
- TGI [47]: > 100 µM
- TGI [48]: > 100 µM
- TGI [49]: > 100 µM
- TGI [50]: > 100 µM
- TGI [51]: 63 µM
- TGI [52]: 56.2 µM
- TGI [53]: 57.1 µM
- TGI [54]: > 100 µM
- TGI [55]: > 100 µM
- TGI [56]: 26.8 µM
